Key:
[1] = test system: NCI-H358 NSCLC and HT29 colon adenocarcinoma xenografts and normal organs; assay: In vivo localization to human tumor xenografts in mice; design: species or system mouse; key to Immunohistochemical Reactivity, Heart / Immunohistochemical Reactivity, Lung / Immunohistochemical Reactivity, Liver / Immunohistochemical Reactivity, Kidney / Immunohistochemical Reactivity, Intestine / Immunohistochemical Reactivity, Spleen / Immunohistochemical Reactivity, Tumor: −, negative; +/−, very weak; 1+, weak; 2+, moderate; 3+, strong; 4+, very strong
Protocol: Tumors were grown subcutaneously in immunocompromised mice (NCI-H358 NSCLC in nu/nu mice and HT29 colon adenocarcinoma in SCID mice) until the tumor volume was approximately 1 cm^3. 100μg of unlabeled antibody for studies using SCID mice, or 100 μg of biotinylated antibody for studies using nude mice, was injected intravenously via a tail vein. Twenty four hours later, the mice were anesthetized, perfused with PBS, and tumor and organs including heart, lungs, liver, kidneys, intestines and spleen were collected and snap frozen in liquid nitrogen.
The tumor and organs from each mouse were sectioned on a cryostat and stained for antibody immunohistochemically as above, with the exception that sections from the nude mice were developed using peroxidase labeled streptavidin-biotin complex (Dako, Carpinteria, Calif.) and the sections from the SCID mice were developed using two peroxidase-conjugated secondary antibodies, a goat anti-mouse IgG+IgM followed by a rabbit anti-goat Ig.
Twenty-four hours later, the mice were sacrificed, exsanguinated and the tumors and tissues were removed.

[2] = test system: A673 rhabdomyosarcoma; assay: Treatment of established A673 tumors; design: species or system mice; conditions: mouse, in vivo
[3] = test system: VEGFR1 (Flt-1/Fc); assay: ELISA of VEGF binding to VEGFR1-coated wells
Protocol: FIG. 2. […] The plate was then incubated with rabbit anti-VEGF (A-20, Santa Cruz Biotechnology, Inc.) at 1 μg/ml and developed using a peroxidase conjugated goat anti-rabbit antibody. Assays were performed in triplicate. Mean percent binding in the absence of antibody is shown, together with the standard deviation.
The assay was also performed by coating wells of a microtiter plate with either control or test IgG.

[4] = test system: A673 rhabdomyosarcoma; assay: In vivo tumor growth inhibition, newly implanted A673; design: species or system nu/nu mice
Protocol: FIG. 3A and FIG. 3B. […] FIG. 3A: 1×10^7 NCI-H358 NSCLC cells were injected subcutaneously into nu/nu mice on day 0. FIG. 3B: 5×10^6 A673 rhabdomyosarcoma cells were injected subcutaneously into nu/nu mice on day 0. Mice were injected i.p. with the indicated IgG on day 1 and 2 times/week thereafter. […] Tumors were measured 2-3 times per week. Mean and standard error is shown for the duration of the study in FIG. 3A, while data for the last day of the study (day 26) is shown in FIG. 3B.
Nu/nu mice were injected subcutaneously with either 1×10^7 NCI-H358 NSCLC cells or 5×10^6 A673 rhabdomyosarcoma cells on day 0. […] The tumors were then measured twice per wk for a period of approximately six wk for the NCI-H358 bearing mice and four wk for the A673 bearing mice. Tumor volume was calculated according to the formula: volume=L×W×H, where L=length, W=width, H=height.

[5] = test system: NCI-H358 tumors; assay: Prolonged treatment of established NCI-H358 xenografts (FIG. 5A); assay type: in vivo, mice
Protocol: FIG. 5A and FIG. 5B. […] Treatments (T) were 100 μg of the IgG given i.p., except for the initial treatment that consisted of 500 μg of the IgG given i.v. Mean tumor volume along with the SEM is shown. At the end of the study (day 116), the mice were sacrificed and the tumors dissected out and weighed. […] The mice were treated every other day as indicated (T). […] Mean tumor volume along with the SE is shown.
In this study, spontaneous regressions were less pronounced. […] The 3E7 treated mice began treatment with a mean tumor volume of 428 mm^3 and rose to a volume of 1326 mm^3 after approximately 14 wk, an increase of […] in volume.

[6] = test system: LS174T colon adenocarcinoma; assay: Treatment of established LS174T tumors; design: species or system mice; conditions: mouse, in vivo
[7] = test system: VEGFR2 in PAE/KDR cells; assay: VEGF-induced phosphorylation of VEGFR2 (immunoprecipitation and Western blot); assay type: cell-based, porcine; conditions: antibodies at 100 nM, 15 min
Protocol: PAE/KDR, PAE/FLT, and bEND.3 cells were grown to 80-90% confluency in 100 mm tissue dishes in media containing 5% serum. The cells were then serum starved for 24 hours in media containing 0.1% serum. After pretreatment with 100 […] in PBS for 30 min, the cells were incubated with 5 nM (200 ng/ml) VEGF165, 5 nM (100 ng/ml) bFGF (R&D Systems, Minneapolis, Minn.), or A673 tumor conditioned media in the presence or absence of control or test antibodies for additional 15 min.
The cells were then washed with ice-cold PBS containing 10 mM EDTA, 2 mM sodium fluoride, and 2 mM sodium orthovanadate and lysed in lysis buffer (50 mM Tris, 150 mM NaCl, 1% Nonidet P-40, 0.25% sodium deoxycholate, 0.1% CHAPS, 5 mM EDTA, 1.5 mM MgCl2, 2 mM sodium fluoride, 2 mM sodium orthovanadate, 10% glycerol and protease inhibitors (Complete Protease Inhibitor Cocktail tablets, Boehringer Mannheim)). The lysates were clarified by centrifugation and resulting supernatant used for immunoprecipitation.
The reactions using the chicken anti-FLT-1 antibody were subsequently incubated with a bridging goat anti-chicken antibody (Kirkegaard and Perry Laboratories, Inc.) for 1 h at 4° C. […]

[8] = 24 hours after i.v. antibody, 2C3 in NCI-H358 nu/nu mice, 3E7 and GV39M in HT29 SCID mice

Question: How did the “Immunohistochemical Reactivity, Heart” value [1, 8] turn out when “2C3: anti-VEGF monoclonal antibody, IgG2a, k, produced by hybridoma ATCC PTA 1595; blocks VEGF binding to VEGFR2 but not VEGFR1 [Clone 2C3]” was run?
Answer: Its value is “−”.

Question: What about the “Immunohistochemical Reactivity, Intestine” value [1, 8] of the same substance?
Answer: Its value is “−”.

Question: And the “Immunohistochemical Reactivity, Kidney” value [1, 8]?
Answer: Its value is “−”.

Question: And the “Immunohistochemical Reactivity, Liver” value [1, 8]?
Answer: Its value is “−”.

Question: And the “Immunohistochemical Reactivity, Lung” value [1, 8]?
Answer: Its value is “−”.

Question: And the “Immunohistochemical Reactivity, Spleen” value [1, 8]?
Answer: Its value is “−”.

Question: What about the “Immunohistochemical Reactivity, Tumor” value ([1]; 24 hours after i.v. antibody, 3E7 and GV39M bound tumor vascular endothelium, 2C3 tumor stroma) of the same substance?
Answer: Its value is 3+.

Question: And the “In vivo tumor localization pattern” value ([1]; CT = connective tissue, BV = blood vessels)?
Answer: Its value is “Moderate to strong”.

Question: And the “In vivo localization in the HT29 human tumor model” value ([1]; HT29)?
Answer: Its value is “localized strongly to the connective tissue”.

Question: What about the “In vivo normal mouse tissue localization” value ([1]; mouse, in vivo) of the same substance?
Answer: The value was “None detectable”.

Question: What about the “Effect on growth of established A673 tumors” value [2] of the same substance?
Answer: Its value is “significantly slowed the growth”.

Question: And the “Blocks VEGF from binding to VEGFR1” value [3]?
Answer: The value was “No”.

Question: What about the “Final tumor volume, A673” value ([4]; 100 μg i.p. 2 times per wk from day 1, controls approximately 1000 mm^3) of the same substance?
Answer: The value was “approximately 150 mm^3”.

Question: What about the “Effect of lower doses on the growth of A673 tumors” value ([4]; 10 or 1 μg twice per wk) of the same substance?
Answer: The value was “did slow the growth”.

Question: What about the “Mean tumor volume after approximately 14 wk of treatment” value ([5]; 100 μg, at start 480 mm^3 (2C3), 428 mm^3 (3E7)) of the same substance?
Answer: The value was 84 mm^3.

Question: What about the “Decrease in mean tumor volume” value ([5]; after approximately 14 wk) of the same substance?
Answer: Its value is “approximately 80%”.

Question: What about the “Mean tumor weight at the end of the study” value ([5]; day 116) of the same substance?
Answer: Its value is 0.054 g.

Question: What about the “Effect on growth of established LS174T tumors” value [6] of the same substance?
Answer: The value was “significantly slowed the growth”.

Question: What about the “Blocking of VEGF-induced phosphorylation of VEGFR2” value [7] of the same substance?
Answer: The value was “block”.

From patent US6342219B1 (Board of Regents, The University of Texas System, priority 1999, dated 2002)
